Measured values taken from patent US20260035367A1 (Celgene Corporation, priority 2021, published 2026).
Like-named read-outs stand apart in the source and are kept apart here.

Key:
[1] = tested on: IL-2 secretion by human effector memory T cells (TEM); assay: Effector memory T cells IL-2 release assay (CD3/CD28 stimulation, HTRF IL-2 detection); type: cell-based; conditions: 24 h; for IC50: Homo sapiens, T-cell
Description: Test compound-mediated inhibition of NFκB signalling in T cells was assessed by quantification of the IL-2 secretion by human effector memory T cells (TEM) upon treatment and stimulation. Human TEM cells were isolated from buffy coats of healthy donors obtained from the French blood bank.
Finally, 10 doses of test compound, originally prepared in DMSO by serial semi-log step dilution, were also added to cells in triplicate wells. Final DMSO concentration in wells was 0.1% in a total volume of 100 μL complete medium. Plates were incubated for 24 h at 37° C. in 5% CO2 atmosphere. After incubation, cell suspensions were centrifuged at 400×g and culture supernatants were recovered and stored at −80° C. […] IL-2 levels were determined in cell supernatants using an HTRF human IL-2 detection kit (Cisbio, cat #62HIL02PEH).

[2] = biological target: T1, Recombinant human PKC-delta (His-tagged 345-676) (Homo sapiens, UniProt Q05655); assay: PKC-delta inhibition assay (HTRF KinEASE kit); type: biochemical; conditions: ratio, PKC-theta vs PKC-delta HTRF; for PKC-theta/PKC-delta selectivity (binned): binned A to G
T1 construct: PKC-delta (His-tagged 345-676); His
T1 sequence (Q05655 345-676): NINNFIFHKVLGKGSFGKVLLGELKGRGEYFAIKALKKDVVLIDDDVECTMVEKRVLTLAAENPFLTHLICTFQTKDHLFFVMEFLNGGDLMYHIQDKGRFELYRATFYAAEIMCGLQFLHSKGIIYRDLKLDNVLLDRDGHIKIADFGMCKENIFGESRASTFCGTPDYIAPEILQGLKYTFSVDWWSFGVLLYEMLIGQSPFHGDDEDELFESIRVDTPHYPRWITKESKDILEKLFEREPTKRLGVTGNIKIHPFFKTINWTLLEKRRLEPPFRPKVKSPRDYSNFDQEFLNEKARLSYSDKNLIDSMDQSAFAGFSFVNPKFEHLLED

[3] = biological target: T2, Recombinant human PKC-theta (His-tagged 362-706) (Homo sapiens, UniProt Q04759); assay: PKC-theta inhibition assay (HTRF KinEASE kit); type: biochemical; conditions: ATP 6.5 μM, STK substrate 525 nM
T2 construct: Recombinant human PKC-theta (His-tagged 362-706); His
T2 sequence (Q04759 362-706): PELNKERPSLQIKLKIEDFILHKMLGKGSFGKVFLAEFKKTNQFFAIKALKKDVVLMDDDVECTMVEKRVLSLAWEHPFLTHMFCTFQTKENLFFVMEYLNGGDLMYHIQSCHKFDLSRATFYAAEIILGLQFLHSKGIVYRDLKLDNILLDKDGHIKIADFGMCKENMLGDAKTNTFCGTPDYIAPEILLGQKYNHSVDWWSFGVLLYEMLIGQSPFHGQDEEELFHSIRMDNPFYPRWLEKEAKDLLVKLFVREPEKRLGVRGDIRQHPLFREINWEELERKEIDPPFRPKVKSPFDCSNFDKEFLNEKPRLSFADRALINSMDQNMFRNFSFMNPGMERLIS
Description: PKC-theta and PKC-delta biochemical activities were measured using the PKC-theta HTRF KinEASEkit kit, according to manufacturer's instructions (Cisbio, catalogue number 61ST1PEJ). Briefly, the kinase buffer component of the kit was supplemented with 10 mM MgCl2, 1 mM DTT and 0.1% Tween 20. […] The streptavidin_XL665 and STK antibody-cryptate detection reagents were mixed according to the manufacturer's instructions. Test compounds were diluted in DMSO in a series of 10 semi-log step doses; 10 nL of each compound dose were dispensed in 384 well plates. […] The reaction was started by addition of the substrate and ATP and incubated at 25° C. for 30 minutes or 20 minutes for the PKC-theta and PKC-delta assays, respectively. The detection reagents were added, and the plate was incubated in the dark for 2 hours. […] The ratio of acceptor and donor emission signals was calculated for each well. Percent inhibition values were calculated from the HTRF ratios at different doses and fitted to a 4-parameter logistic curve to determine IC50 values (see Table 2).

[4] = binned A to G, read-out: PKC-theta IL2 pIC50 (binned) (converted)
[5] = read-out: PKC-theta IL2 pIC50 (converted)
[6] = binned A to H, read-out: PKC-theta HTRF pIC50 (binned) (converted)
[7] = read-out: PKC-theta HTRF pIC50 (converted)

Row | SMILES | IC50 [1, 4] [nM] | IC50 [1, 5] [nM] | PKC-theta/PKC-delta selectivity [2] | PKC-theta/PKC-delta selectivity (binned) [2] | IC50 [3, 6] [nM] | IC50 [3, 7] [nM] | PKC-theta IL2 pIC50 [1] | PKC-theta IL2 pIC50 (binned) ([1]; binned A to G)
1 | C[C@]1(O)C(=O)Nc2nccc(-c3cc(F)cc(N4CCNCC4)c3)c21 (single isomer, unassigned) [Example 62] | 100 to 316 | 126 | 5 | E (a ratio of between 5 and 10) | 3.16 to 10 | 6.31 | – | –
2 | C[C@@]1(O)C(=O)Nc2nccc(-c3cc(F)cc(N4CCNCC4)c3)c21 (single isomer, unassigned) [Example 63] | > 1000 | 10000 | – | G (a ratio of 0 to 1) | 316 to 1000 | 1000 | – | –
3 | C[C@H]1CN(c2cc(-c3ccnc4c3[C@@](C)(O)C(=O)N4)cc(C(F)(F)F)c2)CCN1 (single isomer, unassigned) [Example 81] | – | – | 9 | E (a ratio of between 5 and 10) | 10 to 31.6 | 25.1 | 6.7 | E (a measured pIC50 of between 6.5 and 7.0)
4 | C[C@H]1CN(c2cc(-c3ccnc4c3[C@@](C)(O)C(=O)N4)cc(C(F)(F)F)c2)CCN1 (single isomer, unassigned) [Example 82] | – | – | 3 | F (a ratio of between 1 and 5) | 316 to 1000 | 1000 | 5.4 | G (a measured pIC50<6.0)
5 | C[C@@H]1CN(c2cc(Cl)cc(-c3ccnc4c3[C@](C)(O)C(=O)N4)n2)CCN1 (single isomer, unassigned) [Example 89] | 31.6 to 100 | 63.1 | 17 | D (a ratio of between 10 and 20) | 1 to 3.16 | 3.16 | – | –
6 | CC[C@H]1CN(c2cc(C(F)(F)F)cc(-c3ccnc4c3[C@](C)(O)C(=O)N4)n2)CCN1 (single isomer, unassigned) [Example 90] | 10 to 31.6 | 15.8 | 17 | D (a ratio of between 10 and 20) | 0.316 to 1 | 0.794 | – | –
7 | C[C@@]1(O)C(=O)Nc2nccc(-c3cc(Cl)cc(N4CCNCC(F)C4)n3)c21 (single isomer, unassigned) [Example 91] | 100 to 316 | 200 | 6 | E (a ratio of between 5 and 10) | 3.16 to 10 | 6.31 | – | –
8 | CC1(F)CNCCN(c2cc(Cl)cc(-c3ccnc4c3[C@](C)(O)C(=O)N4)n2)C1 (single isomer, unassigned) [Example 92] | 100 to 316 | 200 | 6 | E (a ratio of between 5 and 10) | 3.16 to 10 | 7.94 | – | –
9 | C[C@H]1CNCCN1c1cc(C(F)(F)F)cc(-c2ccnc3c2[C@](C)(O)C(=O)N3)n1 (single isomer, unassigned) [Example 93] | 100 to 316 | 126 | 12 | D (a ratio of between 10 and 20) | 10 to 31.6 | 12.6 | – | –
10 | C[C@@H]1CNCCN1c1cc(C(F)(F)F)cc(-c2ccnc3c2[C@](C)(O)C(=O)N3)n1 (single isomer, unassigned) [Example 94] | 10 to 31.6 | 20 | 9 | E (a ratio of between 5 and 10) | 1 to 3.16 | 2 | – | –
11 | C[C@H]1CN(c2cc(C(F)(F)F)cc(-c3ccnc4c3[C@](C)(O)C(=O)N4)n2)CCN1 (single isomer, unassigned) [Example 95] | 31.6 to 100 | 31.6 | 15 | D (a ratio of between 10 and 20) | 1 to 3.16 | 2 | – | –
12 | C[C@@]1(O)C(=O)Nc2nccc(-c3cc(C(F)(F)F)cc(N4CCNC5CC54)n3)c21 (single isomer, unassigned) [Example 96] | 100 to 316 | 200 | 10 | E (a ratio of between 5 and 10) | 3.16 to 10 | 5.01 | – | –
13 | C[C@@]1(O)C(=O)Nc2nccc(-c3cc(C(F)(F)F)cc(N4CC[C@H]5OCCN[C@@H]5C4)n3)c21 (single isomer, unassigned) [Example 97] | > 1000 | 3980 | 21 | C (a ratio of between 20 and 30) | 100 to 316 | 158 | – | –
14 | C[C@H]1CNCCN1c1cc(Cl)cc(-c2ccnc3c2[C@](C)(O)C(=O)N3)n1 (single isomer, unassigned) [Example 104] | 100 to 316 | 126 | 11 | D (a ratio of between 10 and 20) | 3.16 to 10 | 5.01 | – | –
15 | C[C@@H]1CNCCN1c1cc(Cl)cc(-c2ccnc3c2[C@](C)(O)C(=O)N3)n1 (single isomer, unassigned) [Example 105] | 10 to 31.6 | 20 | 7 | E (a ratio of between 5 and 10) | 0.316 to 1 | 1 | – | –
16 | C[C@@H]1CN(c2cc(C(F)(F)F)cc(-c3ccnc4c3[C@](C)(O)C(=O)N4)n2)CCN1 (single isomer, unassigned) [Example 108] | 100 to 316 | 126 | 15 | D (a ratio of between 10 and 20) | 10 to 31.6 | 12.6 | – | –
17 | C[C@@]1(O)C(=O)Nc2nccc(-c3cc(C(F)(F)F)cc(N4CCNC(CF)C4)n3)c21 (single isomer, unassigned) [Example 109] | 316 to 1000 | 794 | 29 | C (a ratio of between 20 and 30) | 3.16 to 10 | 3.98 | – | –
18 | C[C@H]1CN(c2cc(Cl)cc(-c3ccnc4c3[C@](C)(O)C(=O)N4)n2)CCN1 (single isomer, unassigned) [Example 110] | 10 to 31.6 | 25.1 | 16 | D (a ratio of between 10 and 20) | 0.316 to 1 | 1 | – | –
19 | C[C@@H]1CN(c2cc(C(F)(F)F)cc(-c3ccnc4c3[C@](C)(O)C(=O)N4)n2)[C@@H](C)CN1 (single isomer, unassigned) [Example 118] | 100 to 316 | 251 | 12 | D (a ratio of between 10 and 20) | 10 to 31.6 | 25.1 | – | –
20 | CC[C@@]1(C)C(=O)Nc2nccc(-c3cc(Cl)cc(N4CCN[C@@H](C)C4)n3)c21 (single isomer, unassigned) [Example 170] | 100 to 316 | 100 | – | – | 3.16 to 10 | 6.31 | – | –
21 | O=c1[nH]c2nccc(-c3ccnc(N4CCNCC4)c3)c2[nH]1 [Example 13] | > 1000 | 10000 | – | – | 316 to 1000 | 398 | – | –
22 | C[C@H]1CN(c2cc(Cl)cc(-c3ccnc4c3C(C)(O)C(=O)N4)n2)CCN1 (stereo partly drawn) [Example 74] | – | – | 12 | D (a ratio of between 10 and 20) | – | – | – | –
